This is an account of results in patent publication US20170189547A1, “Biodegradable Drug Delivery Composition” (Durect Corporation, priority 2010, published 2017).

The data set concerns the target T1, hGH (Homo sapiens, UniProt P01241).
T1 construct: purchased Hospira, Adelaide
Kind of data set: Complexation capability of hGH with anionic and cationic agents (non-complexed hGH in supernatant by RPLC). In kind it is physicochemical. The note with it: for Observation: hGH with complexing agent; for Supernatant Analysis (% of hGH): non-complexed hGH by RPLC. The method, then: Additional complexation agents were tested in vitro for their ability to precipitate rhGH.
Human growth hormone (purchased from Hospira, Adelaide) was complexed with poly lysine, poly arginine, poly adenylic acid (poly-A), or poly thymine (poly-T) in appropriate ratios (as specified in Table 28) to form suspensions. Supernatant was separated from precipitate (ppt) by centrifugation of the complexed material suspensions. The supernatant solution was analyzed for non-complexed hGH by reverse phase liquid chromatography (RPLC).

T1 sequence (P01241 27-217): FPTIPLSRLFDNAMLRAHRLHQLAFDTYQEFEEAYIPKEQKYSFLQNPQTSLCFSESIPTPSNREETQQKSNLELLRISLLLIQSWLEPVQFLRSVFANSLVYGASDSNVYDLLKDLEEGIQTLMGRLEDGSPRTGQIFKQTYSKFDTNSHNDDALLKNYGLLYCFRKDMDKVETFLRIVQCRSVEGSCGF

Regarding Hyaluronic Acid, under “concentration ratio 1:2”, the Observation result is listed as “No ppt” and the “Supernatant Analysis (% of hGH)” value is listed as >90 % of hGH.

On to Poly-Lysine, for which, for the setting “concentration ratio 1:10”, the Observation result was “Cloudy ppt” and the “Supernatant Analysis (% of hGH)” value is recorded as 9.5 % of hGH.
